Data published in patent US11130752B2, “Aminopyrimidine compound” (Cardurion Pharmaceuticals, LLC, priority 2018, dated 2021).
Structures can show the parent of a compound that is named as a salt.

Target: T1, human CaMKIIδ (Homo sapiens, UniProt Q13557)
T1 construct: Full-length, glutathione-S-transferase(GST)-tagged, human CaMKIIδ was purchased from Carna Biosciences; purchased Carna Biosciences (CaMKIIδ); Wako Pure Chemical Industries (calmodulin) 02-111
Assay: In vitro CaMKII inhibitory activity (binding assay, TR-FRET)
Conditions: Table 1, GST-tagged human CaMKIIδ, activity ranks
Protocol: Evaluation of In Vitro CaMKII Inhibitory Activity (Binding Assay)
In vitro CaMKIIδ inhibitory activity was evaluated by a binding assay.
Full-length, glutathione-S-transferase(GST)-tagged, human CaMKIIδ was purchased from Carna Biosciences (product #02-111, Kobe, Japan). Full-length bovine calmodulin was purchased from Wako Pure Chemical Industries (Osaka, Japan). Terbium-labeled anti-GST antibody (Tb-anti-GST Ab) was purchased from Life Technologies (Carlsbad, Calif., USA). Boron-dipyrromethene (BODIPY)-labeled probe ligand was synthesized as described below.
Time-Resolved Fluorescence Resonance Energy Transfer (TR-FRET) Assay
All assays were conducted using 384-well, white, flat-bottomed plates (product #784075, Greiner Bio-One, Frickenhausen, Germany) in kinase assay buffer, which consists of 50 mM HEPES pH 7.6, 10 mM MgCl2, 1 mM EGTA, 0.01% Brig-35, 0.1 mM DTT). The fluorescent probe ligand was added at a final concentration of 300 nM to solutions containing 0.21 nM Tb-anti-GST Ab, 1 mM CaCl2, 10 μg/mL calmodulin, and 0.5 nM GST-tagged CaMKIIδ. After shaded incubation of the protein-probe mixture on ice for 30 min, the premix was dispensed in the assay plate including test inhibitors with 4 fold dilution series of eight concentrations. After 1 hr incubation at room temperature, TR-FRET signals were measured in duplicate using an EnVision microplate reader (Perkin Elmer, Waltham, Mass., USA). The solution in each well was excited with a laser (λ=340 nm) reflected by a dichroic mirror (D400/D505 (Perkin Elmer) through an excitation filter (UV (TRF) 340, (Perkin Elmer)), and fluorescence from Tb and BODIPY were detected through two emission filters (CFP 495 (Perkin Elmer) for Tb, Emission 520 (Perkin Elmer) for BODIPY).
The percentage of inhibition of test compounds was calculated according to equation (1) Inhibition(%)=100×(μH−T)/(μH−μL) (1)
Where T is the value of the wells containing test compounds and μH and μL are the mean values of the 0% and 100% inhibition control wells, respectively. The values of the 0 and 100% controls were the signals obtained in the absence and presence of 3 μM its parent compound, respectively. The half maximal inhibitory concentration (IC50) of test compounds was calculated by fitting the data with the logistic equation using XLfit (IDBS, Guildford, UK). The IC50 was classified according to the following activity ranks.

**Q.** COCCOc1nn([C@H]2CC[C@H](N3CCOCC3)CC2)cc1Nc1ncc(-c2ccc(C#N)c(O[C@@H](C)Cn3cnnn3)c2)cn1 [Example 1, 2-(((S)-1-(1H-tetrazol-1-yl)propan-2-yl)oxy)-4-(2-((3-(2-methoxyethoxy)-1-((1r,4r)-4-morpholinocyclohexyl)-1H-pyrazol-4-yl)amino)pyrimidin-5-yl)benzonitrile] was tested. Which IC50 did it give?
**A.** < 10 nM

**Q.** Which IC50 does the source give for COCCOc1nn([C@H]2CC[C@H](N3CCOCC3)CC2)cc1Nc1ncc(-c2ccc(Cl)c(O[C@@H](C)Cn3cnnn3)c2)cn1 [Example 2, 5-(3-(((S)-1-(1H-tetrazol-1-yl)propan-2-yl)oxy)-4-chlorophenyl)-N-(3-(2-methoxyethoxy)-1-((1r,4r)-4-morpholinocyclohexyl)-1H-pyrazol-4-yl)pyrimidin-2-amine] here?
**A.** < 10 nM

**Q.** For CCOCCOc1nn([C@H]2CC[C@H](N3CCOCC3)CC2)cc1Nc1ncc(-c2ccc(C#N)c(O[C@@H](C)Cn3cnnn3)c2)cn1 [Example 8, 2-(((S)-1-(1H-tetrazol-1-yl)propan-2-yl)oxy)-4-(2-((3-(2-ethoxyethoxy)-1-((1r,4r)-4-morpholinocyclohexyl)-1H-pyrazol-4-yl)amino)pyrimidin-5-yl)benzonitrile], which IC50 is on record?
**A.** < 10 nM

**Q.** CCOCCOc1nn([C@H]2CC[C@H](N3CCOCC3)CC2)cc1Nc1ncc(-c2ccc(Cl)c(O[C@@H](C)Cn3cnnn3)c2)cn1 [Example 9, 5-(3-(((S)-1-(1H-tetrazol-1-yl)propan-2-yl)oxy)-4-chlorophenyl)-N-(3-(2-ethoxyethoxy)-1-((1r,4r)-4-morpholinocyclohexyl)-1H-pyrazol-4-yl)pyrimidin-2-amine] was tested. Which IC50 did it give?
**A.** < 10 nM

**Q.** CC(C)OCCOc1nn([C@H]2CC[C@H](N3CCOCC3)CC2)cc1Nc1ncc(-c2ccc(C#N)c(O[C@@H](C)Cn3cnnn3)c2)cn1 [Example 14, 2-(((S)-1-(1H-tetrazol-1-yl)propan-2-yl)oxy)-4-(2-((3-(2-isopropoxyethoxy)-1-((1r,4r)-4-morpholinocyclohexyl)-1H-pyrazol-4-yl)amino)pyrimidin-5-yl)benzonitrile] was tested. Which IC50 did it give?
**A.** < 10 nM

**Q.** Which IC50 does the source give for CC(C)OCCOc1nn([C@H]2CC[C@H](N3CCOCC3)CC2)cc1Nc1ncc(-c2ccc(C#N)c(O[C@@H](C)Cn3cncn3)c2)cn1 [Example 16, 2-(((S)-1-(1H-1,2,4-triazol-1-yl)propan-2-yl)oxy)-4-(2-((3-(2-isopropoxyethoxy)-1-((1r,4r)-4-morpholinocyclohexyl)-1H-pyrazol-4-yl)amino)pyrimidin-5-yl)benzonitrile] here?
**A.** < 10 nM

**Q.** For COCCCOc1nn([C@H]2CC[C@H](N3CCOCC3)CC2)cc1Nc1ncc(-c2ccc(Cl)c(O[C@@H](C)Cn3cnnn3)c2)cn1 [Example 27, 5-(3-(((S)-1-(1H-tetrazol-1-yl)propan-2-yl)oxy)-4-chlorophenyl)-N-(3-(3-methoxypropoxy)-1-((1r,4r)-4-morpholinocyclohexyl)-1H-pyrazol-4-yl)pyrimidin-2-amine], which IC50 is on record?
**A.** < 10 nM

**Q.** For COCCCOc1nn([C@H]2CC[C@H](N3CCOCC3)CC2)cc1Nc1ncc(-c2ccc(C#N)c(O[C@@H](C)Cn3cncn3)c2)cn1 [Example 28, 2-(((S)-1-(1H-1,2,4-triazol-1-yl)propan-2-yl)oxy)-4-(2-((3-(3-methoxypropoxy)-1-((1r,4r)-4-morpholinocyclohexyl)-1H-pyrazol-4-yl)amino)pyrimidin-5-yl)benzonitrile], which IC50 is on record?
**A.** < 10 nM

**Q.** How did the IC50 turn out when CCOCCCOc1nn([C@H]2CC[C@H](N3CCOCC3)CC2)cc1Nc1ncc(-c2ccc(Cl)c(O[C@@H](C)Cn3cnnn3)c2)cn1 [Example 34, 5-(3-(((S)-1-(1H-tetrazol-1-yl)propan-2-yl)oxy)-4-chlorophenyl)-N-(3-(3-ethoxypropoxy)-1-((1r,4r)-4-morpholinocyclohexyl)-1H-pyrazol-4-yl)pyrimidin-2-amine] was run?
**A.** < 10 nM

**Q.** Which IC50 does the source give for C[C@@H](Cn1cnnn1)Oc1cc(-c2cnc(Nc3cn([C@H]4CC[C@H](N5CCOCC5)CC4)nc3OCCCOCC(F)F)nc2)ccc1C#N [Example 46, 2-(((S)-1-(1H-tetrazol-1-yl)propan-2-yl)oxy)-4-(2-((3-(3-(2,2-difluoroethoxy)propoxy)-1-((1r,4r)-4-morpholinocyclohexyl)-1H-pyrazol-4-yl)amino)pyrimidin-5-yl)benzonitrile] here?
**A.** < 10 nM

**Q.** How did the IC50 turn out when C[C@@H](Cn1cnnn1)Oc1cc(-c2cnc(Nc3cn([C@H]4CC[C@H](N5CCOCC5)CC4)nc3OCCCOCC(F)F)nc2)ccc1Cl [Example 47, 5-(3-(((S)-1-(1H-tetrazol-1-yl)propan-2-yl)oxy)-4-chlorophenyl)-N-(3-(3-(2,2-difluoroethoxy)propoxy)-1-((1r,4r)-4-morpholinocyclohexyl)-1H-pyrazol-4-yl)pyrimidin-2-amine] was run?
**A.** < 10 nM

**Q.** COCCOCCOc1nn([C@H]2CC[C@H](N3CCOCC3)CC2)cc1Nc1ncc(-c2ccc(C#N)c(O[C@@H](C)Cn3cnnn3)c2)cn1 [Example 48, 2-(((S)-1-(1H-tetrazol-1-yl)propan-2-yl)oxy)-4-(2-((3-(2-(2-methoxyethoxy)ethoxy)-1-((1r,4r)-4-morpholinocyclohexyl)-1H-pyrazol-4-yl)amino)pyrimidin-5-yl)benzonitrile hydrochloride] was tested. Which IC50 did it give?
**A.** < 10 nM

**Q.** How did the IC50 turn out when COCCOCCOc1nn([C@H]2CC[C@H](N3CCOCC3)CC2)cc1Nc1ncc(-c2ccc(Cl)c(O[C@@H](C)Cn3cnnn3)c2)cn1 [Example 49, 5-(3-(((S)-1-(1H-tetrazol-1-yl)propan-2-yl)oxy)-4-chlorophenyl)-N-(3-(2-(2-methoxyethoxy)ethoxy)-1-((1r,4r)-4-morpholinocyclohexyl)-1H-pyrazol-4-yl)pyrimidin-2-amine hydrochloride] was run?
**A.** < 10 nM

**Q.** C[C@@H](Cn1cnnn1)Oc1cc(-c2cnc(Nc3cn([C@H]4CC[C@H](N5[C@@H]6CC[C@H]5COC6)CC4)nc3OCCS(C)(=O)=O)nc2)ccc1Cl [Example 86, 5-(3-(((S)-1-(1H-tetrazol-1-yl)propan-2-yl)oxy)-4-chlorophenyl)-N-(1-((1r,4r)-4-((1R,5S)-3-oxa-8-azabicyclo[3.2.1]octan-8-yl)cyclohexyl)-3-(2-(methylsulfonyl)ethoxy)-1H-pyrazol-4-yl)pyrimidin-2-amine] was tested. Which IC50 did it give?
**A.** < 10 nM

**Q.** Which IC50 does the source give for C[C@@H](Cn1cnnn1)Oc1cc(-c2cnc(Nc3cn([C@H]4CC[C@H](N5CCOCC5)CC4)nc3OCc3ccccn3)nc2)ccc1C#N [Example 129, 2-(((S)-1-(1H-tetrazol-1-yl)propan-2-yl)oxy)-4-(2-((1-((1r,4r)-4-morpholinocyclohexyl)-3-(pyridin-2-ylmethoxy)-1H-pyrazol-4-yl)amino)pyrimidin-5-yl)benzonitrile] here?
**A.** < 10 nM

**Q.** How did the IC50 turn out when C[C@@H](Cn1cnnn1)Oc1cc(-c2cnc(Nc3cn([C@H]4CC[C@H](N5CCOCC5)CC4)nc3OCc3ccccn3)nc2)ccc1Cl [Example 130, 5-(3-(((S)-1-(1H-tetrazol-1-yl)propan-2-yl)oxy)-4-chlorophenyl)-N-(1-((1r,4r)-4-morpholinocyclohexyl)-3-(pyridin-2-ylmethoxy)-1H-pyrazol-4-yl)pyrimidin-2-amine] was run?
**A.** < 10 nM

**Q.** C[C@@H](Cn1cnnn1)Oc1cc(-c2cnc(Nc3cn([C@H]4CC[C@H](N5[C@@H]6CC[C@H]5COC6)CC4)nc3OCCCS(C)(=O)=O)nc2)ccc1Cl [Example 142, 5-(3-(((S)-1-(1H-tetrazol-1-yl)propan-2-yl)oxy)-4-chlorophenyl)-N-(1-((1r,4r)-4-((1R,5S)-3-oxa-8-azabicyclo[3.2.1]octan-8-yl)cyclohexyl)-3-(3-(methylsulfonyl)propoxy)-1H-pyrazol-4-yl)pyrimidin-2-amine] was tested. Which IC50 did it give?
**A.** < 10 nM
